# Article PMC7217877, “N-AS-triggered SPMs are direct regulators of microglia in a model of Alzheimer’s disease” (Nature Communications, 2020)
# Where “and” joins values, the source holds several entries; their conditions need not be identical. Identical values can stand only once.
# Assays:
# APP/PS1 mice = test: immunofluorescence of 6E10, Aβ40 and Aβ42 (Fig 6b-d); type: in vivo, mouse; details: for 6E10 immunofluorescence quantification (Figure 6b) / Aβ40 immunofluorescence quantification (Figure 6c) / Aβ42 immunofluorescence quantification (Figure 6d): APP/PS1 + N-AS, individual animals
# Description: Thioflavin S (Sigma-Aldrich) staining was carried out according to previously described procedures. We used 6E10 (mouse, 1:100, Signet, SIG39300), anti-20G10 (mouse, 1:1000, provided by D. R. Howlett, GlaxoSmithKline, Harlow, Essex, UK) for Aβ42, anti-G30 (rabbit, 1:1000, provided by D. R. Howlett) for Aβ40, SMA (mouse, 1:400, Sigma-Aldrich, A2547), AT8 (mouse, 1:500, Thermo Fisher Scientific, MN1020), Caspase-3 (mouse, 1:200, Novus Biologicals, NB100-56708), ac-S565 (rabbit, 1:100), COX2 (mouse, 1:250, Thermo Fisher Scientific, 35-8200), Iba1 (rabbit, 1:500, Wako, 019-19941 and goat, Abcam, ab5076), NeuN (mouse, 1:500, Millipore, MAB177), GFAP (rabbit, 1:500, Dako, N1506 and chicken, 1:500, Abcam, ab4674), and Lamp1 (mouse, 1:200, Abcam, ab24170). The sections were analyzed with a laser-scanning confocal microscope (FV3000; Olympus) or with a BX51 microscope (Olympus). MetaMorph software (Molecular Devices) was used to quantification. Three-dimensional reconstruction of microglia was recorded and analyzed using IMARIS software (Bitplane)[11]. For the analysis of age-dependent microglial COX2^+ CX3CR1^+ cells in WT and APP/PS1 mice, COX2 (rabbit, 1:100, Abcam, ab15191) and CX3CR1 (mouse, 1:100, BioLegend, 149008) antibody were used and the images were acquired on Alexa 488 and APC Channel with performed using Operetta CLS and Analysis Software 4.5 (Perkin-Elmer).
# Transgenic mouse lines over-expressing the hAPP695swe (APP) and presenilin-1M146V (PS1) mutations were originated from GlaxoSmithKline (Harlow, UK)[32] and maintained as described previously. We purchased 5×FAD mice from Jackson Labs (Stock number. 34840-JAX). Because APP/PS1 and 5xFAD mice show sex differences in disease progression, we used only male mice. To examine possible therapeutic effect of N-AS and aspirin in APP/PS1 mice, the N-AS (30 mg kg^−1, Sigma-Aldrich, 01912) was injected daily s.c. for 8 weeks to 7-months-old APP/PS1 mice until the age of 9 months, and aspirin (2 mg kg^−1, Sigma-Aldrich, A5376)[33] was administrated orally to 7-months-old APP/PS1 mice for 8 weeks. Also, to confirm possible therapeutic efficacy of N-AS in 5×FAD, the N-AS (30 mg kg^−1, Sigma-Aldrich, 01912) was injected daily s.c. for 4 weeks to 3-months-old 5×FAD mice until the age of 4 months. Block randomization method was used to allocate the animals to experimental groups. To eliminate the bias, we were blinded in experimental progress such as data collection and data analysis. Mice were housed at temperature of 22 °C and a 12 h day/12 h night cycle with free access to tap water and food pellets. All protocols were approved by the Kyungpook National University Institutional Animal Care and Use Committee.
# tumors = system: tumors; design: method as in PMID 27043542, PMID 24566153; details: cited from earlier work
structure (smiles),measurement,setting,value
"CCCCCCCCCCCCC/C=C/[C@@H](O)[C@H](CO)NC(C)=O [N-AS, N-((2S,3R,E)-1,3-Dihydroxyoctadec-4-en-2-yl)acetamide]",6E10 immunofluorescence quantification (Figure 6b),APP/PS1 mice; Cortex,0.0608 and 0.09453 and 0.05939 and 0.02037 and 0.005591 and 0.04313 and 0.04886 and 0.06655
same,Aβ40 immunofluorescence quantification (Figure 6c),APP/PS1 mice; Cortex,0.06419 and 0.04296 and 0.0589 and 0.2298 and 0.117 and 0.122 and 0.04359 and 0.05854
same,Aβ42 immunofluorescence quantification (Figure 6d),APP/PS1 mice; Cortex,0.1554 and 0.215 and 0.1788 and 0.1001 and 0.1191 and 0.09457 and 0.1824 and 0.177
same,6E10 immunofluorescence quantification (Figure 6b),APP/PS1 mice; Hippocampus,0.04847 and 0.07321 and 0.02799 and 0.04609 and 0.00742 and 0.009448 and 0.05438 and 0.09253
same,Aβ40 immunofluorescence quantification (Figure 6c),APP/PS1 mice; Hippocampus,0.07041 and 0.04924 and 0.02685 and 0.04786 and 0.1308 and 0.07762 and 0.09677 and 0.1893 and 0.1045
same,Aβ42 immunofluorescence quantification (Figure 6d),APP/PS1 mice; Hippocampus,0.2679 and 0.3316 and 0.148 and 0.1454 and 0.2815 and 0.3706 and 0.09586 and 0.279 and 0.395
same,"Aβ levels by immunofluorescence of 6E10, Aβ40, Aβ42",APP/PS1 mice; N-AS vs vehicle APP/PS1,significantly lower Aβ levels
same,apoptosis of tumors,tumors,induce apoptosis of tumors
